What was measured:
Estrogen receptor = biological target: T1, Estrogen receptor (Homo sapiens, UniProt P03372)
T1 sequence (P03372 whole entry): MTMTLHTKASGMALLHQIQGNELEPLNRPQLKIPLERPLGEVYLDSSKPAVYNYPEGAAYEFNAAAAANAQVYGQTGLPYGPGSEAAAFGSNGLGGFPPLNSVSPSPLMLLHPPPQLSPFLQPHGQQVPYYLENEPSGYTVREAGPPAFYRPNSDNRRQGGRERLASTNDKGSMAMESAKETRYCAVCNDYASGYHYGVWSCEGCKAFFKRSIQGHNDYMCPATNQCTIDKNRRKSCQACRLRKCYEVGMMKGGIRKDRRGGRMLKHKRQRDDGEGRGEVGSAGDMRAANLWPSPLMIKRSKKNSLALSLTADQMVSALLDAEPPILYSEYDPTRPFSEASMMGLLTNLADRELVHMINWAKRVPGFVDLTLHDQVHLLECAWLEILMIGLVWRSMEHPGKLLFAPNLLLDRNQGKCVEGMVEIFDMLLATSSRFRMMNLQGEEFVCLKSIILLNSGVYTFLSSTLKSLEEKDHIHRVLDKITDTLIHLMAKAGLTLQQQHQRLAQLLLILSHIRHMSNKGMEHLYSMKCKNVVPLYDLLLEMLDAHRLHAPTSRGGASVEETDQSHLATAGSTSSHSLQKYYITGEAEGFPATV

Histamine H3 receptor = Histamine H3 receptor (Homo sapiens, UniProt Q9Y5N1)
[1] = biological target: T2, Muscarinic acetylcholine receptor M2 (Homo sapiens, UniProt P08172)
T2 sequence (P08172 whole entry): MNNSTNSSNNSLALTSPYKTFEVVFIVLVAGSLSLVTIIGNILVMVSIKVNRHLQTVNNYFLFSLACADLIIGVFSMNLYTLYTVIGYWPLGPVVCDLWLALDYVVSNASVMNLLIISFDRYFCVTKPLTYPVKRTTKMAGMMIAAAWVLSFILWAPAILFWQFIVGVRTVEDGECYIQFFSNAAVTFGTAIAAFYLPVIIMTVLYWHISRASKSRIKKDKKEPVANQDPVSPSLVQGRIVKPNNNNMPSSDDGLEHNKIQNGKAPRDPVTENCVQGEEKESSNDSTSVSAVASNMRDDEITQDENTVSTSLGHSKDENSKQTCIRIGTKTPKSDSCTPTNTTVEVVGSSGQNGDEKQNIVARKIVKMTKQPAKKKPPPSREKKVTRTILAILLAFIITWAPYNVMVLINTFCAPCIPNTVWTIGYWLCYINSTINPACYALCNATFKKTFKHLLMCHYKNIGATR

Adenosine receptor A3 = biological target: T3, Adenosine receptor A3 (Homo sapiens, UniProt P0DMS8)
T3 sequence (P0DMS8 whole entry): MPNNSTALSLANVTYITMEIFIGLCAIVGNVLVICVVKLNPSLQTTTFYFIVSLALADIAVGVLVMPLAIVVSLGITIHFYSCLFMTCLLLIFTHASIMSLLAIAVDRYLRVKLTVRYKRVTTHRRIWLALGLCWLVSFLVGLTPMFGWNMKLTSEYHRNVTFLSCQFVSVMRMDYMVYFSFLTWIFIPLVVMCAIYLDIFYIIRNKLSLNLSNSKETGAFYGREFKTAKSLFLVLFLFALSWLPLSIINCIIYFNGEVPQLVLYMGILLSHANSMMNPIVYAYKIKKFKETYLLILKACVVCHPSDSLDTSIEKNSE

[2] = biological target: Sodium-dependent noradrenaline transporter (Homo sapiens, UniProt P23975)
[3] = biological target: Voltage-gated inwardly rectifying potassium channel KCNH2 (Homo sapiens, UniProt Q12809); format: functional; details: read-out: AC50
[4] = biological target: Sodium-dependent dopamine transporter (Homo sapiens, UniProt Q01959)
[5] = biological target: T4, 5-hydroxytryptamine receptor 1A (Homo sapiens, UniProt P08908); format: functional, cell-based
T4 sequence (P08908 whole entry): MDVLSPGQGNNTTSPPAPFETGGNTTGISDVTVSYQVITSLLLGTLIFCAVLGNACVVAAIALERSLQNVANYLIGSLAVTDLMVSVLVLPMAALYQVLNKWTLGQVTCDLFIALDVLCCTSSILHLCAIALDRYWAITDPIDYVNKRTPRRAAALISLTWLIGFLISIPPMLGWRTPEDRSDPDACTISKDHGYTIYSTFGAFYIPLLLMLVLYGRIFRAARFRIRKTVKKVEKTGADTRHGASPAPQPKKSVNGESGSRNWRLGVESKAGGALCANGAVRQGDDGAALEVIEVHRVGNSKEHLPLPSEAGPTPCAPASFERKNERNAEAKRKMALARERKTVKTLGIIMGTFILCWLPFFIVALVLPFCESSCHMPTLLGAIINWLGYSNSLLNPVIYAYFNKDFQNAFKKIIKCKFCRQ

[6] = biological target: T4, 5-hydroxytryptamine receptor 1A; format: functional, cell-based; remark: listed apart in the source
[7] = biological target: T5, Muscarinic acetylcholine receptor M1 (Homo sapiens, UniProt P11229); format: functional
T5 sequence (P11229 whole entry): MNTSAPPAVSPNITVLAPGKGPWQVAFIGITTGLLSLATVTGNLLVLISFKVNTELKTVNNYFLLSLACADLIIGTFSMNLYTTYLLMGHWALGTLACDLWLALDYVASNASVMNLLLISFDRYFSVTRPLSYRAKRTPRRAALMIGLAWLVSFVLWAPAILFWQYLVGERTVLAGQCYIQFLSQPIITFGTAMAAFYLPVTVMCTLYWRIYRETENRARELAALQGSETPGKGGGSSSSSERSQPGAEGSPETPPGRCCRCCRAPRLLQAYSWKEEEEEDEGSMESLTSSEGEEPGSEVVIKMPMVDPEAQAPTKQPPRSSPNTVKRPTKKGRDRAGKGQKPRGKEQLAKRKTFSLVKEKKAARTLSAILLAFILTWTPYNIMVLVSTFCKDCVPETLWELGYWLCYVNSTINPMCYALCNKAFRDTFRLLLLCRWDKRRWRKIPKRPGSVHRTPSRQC

[8] = biological target: Beta-1 adrenergic receptor (Homo sapiens, UniProt P08588); format: functional

Measured: AC50
Further: assay procedure not described here.

Chain of Voltage-gated inwardly rectifying potassium channel KCNH2 (Q12809 whole entry): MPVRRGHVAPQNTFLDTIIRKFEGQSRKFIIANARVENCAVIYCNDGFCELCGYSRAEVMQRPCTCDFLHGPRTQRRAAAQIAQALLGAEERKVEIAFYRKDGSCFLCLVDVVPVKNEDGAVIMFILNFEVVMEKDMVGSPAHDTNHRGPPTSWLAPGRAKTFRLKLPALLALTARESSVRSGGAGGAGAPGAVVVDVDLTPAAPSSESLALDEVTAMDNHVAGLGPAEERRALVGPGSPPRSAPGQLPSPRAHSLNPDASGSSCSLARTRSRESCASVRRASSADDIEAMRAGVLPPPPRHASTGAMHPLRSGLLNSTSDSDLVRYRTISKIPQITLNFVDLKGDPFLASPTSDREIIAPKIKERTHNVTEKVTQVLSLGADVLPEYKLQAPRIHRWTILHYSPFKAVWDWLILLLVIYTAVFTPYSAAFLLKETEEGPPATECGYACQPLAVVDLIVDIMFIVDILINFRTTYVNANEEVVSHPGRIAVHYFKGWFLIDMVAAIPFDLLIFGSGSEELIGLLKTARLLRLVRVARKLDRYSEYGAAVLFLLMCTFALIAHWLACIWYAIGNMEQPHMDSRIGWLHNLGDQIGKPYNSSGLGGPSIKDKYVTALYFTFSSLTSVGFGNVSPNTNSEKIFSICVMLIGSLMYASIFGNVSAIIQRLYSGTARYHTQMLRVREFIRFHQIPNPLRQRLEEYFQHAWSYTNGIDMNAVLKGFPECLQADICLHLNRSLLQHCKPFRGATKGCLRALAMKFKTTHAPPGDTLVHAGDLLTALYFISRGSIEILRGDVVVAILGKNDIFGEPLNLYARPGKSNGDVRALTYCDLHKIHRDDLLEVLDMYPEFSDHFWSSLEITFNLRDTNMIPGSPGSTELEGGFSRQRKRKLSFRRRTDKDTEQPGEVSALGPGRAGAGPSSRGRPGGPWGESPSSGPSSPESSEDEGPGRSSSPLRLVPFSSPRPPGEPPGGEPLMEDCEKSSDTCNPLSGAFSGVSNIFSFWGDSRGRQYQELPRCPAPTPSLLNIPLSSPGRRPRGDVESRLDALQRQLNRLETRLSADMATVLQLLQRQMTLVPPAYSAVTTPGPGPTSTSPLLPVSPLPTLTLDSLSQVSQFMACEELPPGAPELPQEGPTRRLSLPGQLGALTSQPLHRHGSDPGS
Chain of Sodium-dependent dopamine transporter (Q01959 whole entry): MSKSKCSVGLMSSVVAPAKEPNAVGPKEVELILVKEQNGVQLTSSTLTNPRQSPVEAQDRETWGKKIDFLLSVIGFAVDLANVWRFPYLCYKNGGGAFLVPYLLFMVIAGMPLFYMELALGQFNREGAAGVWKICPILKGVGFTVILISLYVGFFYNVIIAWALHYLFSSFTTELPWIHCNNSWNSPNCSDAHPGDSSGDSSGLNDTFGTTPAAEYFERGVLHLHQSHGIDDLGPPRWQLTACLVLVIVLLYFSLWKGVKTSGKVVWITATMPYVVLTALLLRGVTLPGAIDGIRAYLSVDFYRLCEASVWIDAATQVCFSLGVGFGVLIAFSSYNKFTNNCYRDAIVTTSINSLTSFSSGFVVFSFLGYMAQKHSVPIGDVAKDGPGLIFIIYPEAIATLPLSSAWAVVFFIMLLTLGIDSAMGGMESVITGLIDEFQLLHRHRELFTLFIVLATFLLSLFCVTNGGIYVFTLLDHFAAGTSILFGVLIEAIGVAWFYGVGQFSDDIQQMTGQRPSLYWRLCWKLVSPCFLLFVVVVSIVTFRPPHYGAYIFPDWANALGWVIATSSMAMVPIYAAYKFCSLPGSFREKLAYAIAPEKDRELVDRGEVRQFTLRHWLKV
Chain of Histamine H3 receptor (Q9Y5N1 whole entry): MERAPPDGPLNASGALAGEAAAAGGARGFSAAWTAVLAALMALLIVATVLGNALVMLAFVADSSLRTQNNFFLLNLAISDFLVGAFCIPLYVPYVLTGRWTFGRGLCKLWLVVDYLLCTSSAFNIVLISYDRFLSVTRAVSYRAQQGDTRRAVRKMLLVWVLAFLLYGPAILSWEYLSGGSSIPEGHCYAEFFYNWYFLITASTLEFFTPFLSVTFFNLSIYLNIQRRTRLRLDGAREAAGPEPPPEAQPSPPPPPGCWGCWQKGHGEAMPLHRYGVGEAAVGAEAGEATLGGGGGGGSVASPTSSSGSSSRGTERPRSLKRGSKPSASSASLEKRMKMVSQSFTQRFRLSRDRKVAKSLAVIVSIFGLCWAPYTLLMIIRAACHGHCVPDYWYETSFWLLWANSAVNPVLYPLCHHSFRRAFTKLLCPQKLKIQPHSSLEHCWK
Chain of Beta-1 adrenergic receptor (P08588 whole entry): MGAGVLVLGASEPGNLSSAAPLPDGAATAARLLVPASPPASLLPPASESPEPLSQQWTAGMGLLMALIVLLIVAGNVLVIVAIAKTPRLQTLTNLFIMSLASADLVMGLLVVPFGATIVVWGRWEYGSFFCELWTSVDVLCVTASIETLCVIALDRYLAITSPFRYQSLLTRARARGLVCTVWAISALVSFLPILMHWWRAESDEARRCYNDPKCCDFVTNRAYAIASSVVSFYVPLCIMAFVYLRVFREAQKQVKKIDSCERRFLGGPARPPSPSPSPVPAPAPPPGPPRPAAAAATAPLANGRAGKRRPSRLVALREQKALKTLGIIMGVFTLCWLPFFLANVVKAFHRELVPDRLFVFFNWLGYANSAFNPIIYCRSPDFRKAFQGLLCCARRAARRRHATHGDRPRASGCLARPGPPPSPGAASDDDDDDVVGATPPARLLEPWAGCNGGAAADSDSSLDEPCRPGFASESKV
Chain of Sodium-dependent noradrenaline transporter (P23975 whole entry): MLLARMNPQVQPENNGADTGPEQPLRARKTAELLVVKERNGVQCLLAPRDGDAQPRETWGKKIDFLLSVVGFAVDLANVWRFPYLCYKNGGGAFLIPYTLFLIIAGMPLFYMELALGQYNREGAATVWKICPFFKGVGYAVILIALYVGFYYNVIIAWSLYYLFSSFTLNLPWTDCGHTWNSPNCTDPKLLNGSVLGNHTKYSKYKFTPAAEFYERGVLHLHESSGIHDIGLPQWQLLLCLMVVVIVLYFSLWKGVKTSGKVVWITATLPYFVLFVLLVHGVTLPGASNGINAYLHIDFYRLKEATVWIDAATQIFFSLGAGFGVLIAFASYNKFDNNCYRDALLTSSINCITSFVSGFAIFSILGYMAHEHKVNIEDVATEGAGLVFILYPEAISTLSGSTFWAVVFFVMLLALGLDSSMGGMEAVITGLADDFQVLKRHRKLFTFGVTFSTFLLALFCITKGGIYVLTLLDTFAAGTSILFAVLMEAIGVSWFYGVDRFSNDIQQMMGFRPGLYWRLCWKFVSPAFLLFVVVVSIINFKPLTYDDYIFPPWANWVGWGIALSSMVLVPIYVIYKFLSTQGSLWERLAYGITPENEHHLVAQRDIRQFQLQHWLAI

CN(C)C(=O)Oc1cccc([N+](C)(C)C)c1 [NEOSTIGMINE]
not listed: [5] | [6] | [7] | [8]
> 30 µM: all other assays above

CCN(CC)C(=O)C1(c2ccccc2)CC1CN (stereo unspecified)
> 30 µM: [5] | [6] | [7] | [8]
